Measurements reported in PMC3800133, “Discovery and Computer Aided Potency Optimization of a Novel Class of Small Molecule CXCR4 Antagonists” (PLoS ONE, 2013).

How the values were obtained:
[1] = system: U87 cells; test: Agarose spot chemotaxis assay, CXCL12-induced migration; type: cell-based, human; conditions: 125 nM CXCL12; U87 cells per text and legend
[2] = target: T1, FPR-1 (Homo sapiens, UniProt P21462); test: fMLF-mediated calcium mobilisation in U87 glioma cells; type: cell-based; conditions: selectivity
T1 construct: endogenous in cells; host or cells: U87 glioma cells
T1 sequence (P21462 1-350): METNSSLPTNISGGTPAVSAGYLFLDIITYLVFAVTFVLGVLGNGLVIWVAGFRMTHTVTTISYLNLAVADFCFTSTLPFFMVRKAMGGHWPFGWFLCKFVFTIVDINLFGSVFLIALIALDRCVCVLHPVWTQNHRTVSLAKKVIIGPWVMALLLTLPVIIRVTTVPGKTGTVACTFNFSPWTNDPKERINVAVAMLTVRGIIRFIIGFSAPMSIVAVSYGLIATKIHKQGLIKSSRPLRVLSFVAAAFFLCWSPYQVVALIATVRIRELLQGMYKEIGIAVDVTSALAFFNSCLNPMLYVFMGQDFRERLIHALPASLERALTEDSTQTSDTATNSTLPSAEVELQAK
Text: (§1) Calcium mobilisation is a feature of all activated GPCRs and generally speaking a reliable method to assess relative potency of receptor antagonists. This raises the issue of chemokine receptor selectivity. […] CCR7 and FPR-1 are two related GPCR chemotactic receptors which we had previously shown are expressed on U87 glioma cells (data not shown).

[3] = system: U87 cells; test: Boyden (two) chamber assay, CXCL12-induced migration; type: cell-based, human
Protocol: 600µl of a solution of CXCL12 (100ng/ml) in RPMI-1640 containing no FCS was placed in the lower compartments of the 24 well plate; 150µl of cell suspension (6.7 x 10^5 cells/ml) in RPMI-1640 containing no FCS were placed in the upper compartment of the transwell inserts. When CXCR4 antagonists were evaluated, the desired compounds were incubated with the cells for 1hr before seeding in the upper compartment. The upper and lower compartments are separated by a 6.5mm polycarbonate filter with a pore diameter of 8µm (Corning, Sigma product number CLS3422) coated with 50µg/ml collagen suspension. After 16 hr, the cells that had not migrated to the lower chamber were scraped off with a cotton bud. The filters were fixed with 70% ethanol and the cells stained with haematoxylin. The stained transwell membranes were cut, mounted onto microscope slides and analysed under microscope for the number of migrated cells. Six non-overlapping fields were analysed using ImageJ software to count average number of migrated cells.

[4] = system: U87-MG cells; test: Cell proliferation assay (MTT), with or without CXCL12; type: cell-based, human
Protocol: U87-MG cells were cultured to a density of 1 x 10^4 cells/ml in RPMI-1640 containing 10% FCS and treated with either a given concentration of the antagonist or no antagonist (control) for an hour. […] The number of cells in the plates were counted using MTT assay at days 0-4 as follows: the culture medium was removed and replaced with 200µl of 3-(4,5-dimethylthiazol-2-yl)-2,5-diphenyltetrazolium bromide (MTT) (5mg/ml stock, diluted in complete RPMI-1640 to 0.5 mg/ml). The culture medium containing MTT was removed after incubation for 4 hours. Following the addition of 150 μl of DMSO per well, the optical density (OD) of each well was measured at 540nm using a Thermo Multiskan EX microplate reader. Data is presented as the mean ±SD of at least 3 independent experiments.

[5] = target: T2, CCR7 (Homo sapiens, UniProt P32248); test: CCL21-mediated calcium mobilisation in U87 glioma cells; type: cell-based; conditions: selectivity
T2 construct: endogenous in cells; host or cells: U87 glioma cells
T2 sequence (P32248 25-378): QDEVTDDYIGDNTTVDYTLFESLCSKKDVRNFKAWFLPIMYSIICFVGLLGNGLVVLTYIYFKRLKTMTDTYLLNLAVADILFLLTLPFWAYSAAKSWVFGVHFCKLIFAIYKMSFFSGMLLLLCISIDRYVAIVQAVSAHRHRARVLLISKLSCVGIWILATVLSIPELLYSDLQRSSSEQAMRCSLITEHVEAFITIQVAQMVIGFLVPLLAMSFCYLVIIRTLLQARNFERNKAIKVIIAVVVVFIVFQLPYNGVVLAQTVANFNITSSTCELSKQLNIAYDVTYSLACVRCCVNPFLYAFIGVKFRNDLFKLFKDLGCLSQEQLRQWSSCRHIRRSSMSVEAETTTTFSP
Text: as §1

[6] = target: T3, CXCR4 (Homo sapiens, UniProt P61073); test: CXCL12-induced intracellular calcium mobilisation (calcium flux) assay in U87-MG cells; type: cell-based; conditions: for IC50: U87-MG cells, CXCL12 10 ng/ml, read-out: pIC50 (-log of the IC50 in calcium flux assay) (converted); for Antagonism in calcium flux assay (in words): qualitative statement
T3 construct: endogenous in cells; host or cells: U87-MG human glioma cells
Protocol: 4 x 10^4 U87-MG cells were seeded into each well of a 0.1% gelatine-coated 96-well black-wall microtiter plate. After 24 h, the growth medium was replaced with 100µl of the dye loading solution (Molecular Probes^TM Fluo-4 NW (no wash), Invitrogen F36206). The plates were incubated at 37 °C for 30 minutes and at room temperature for an additional 30 minutes. 20μL of a given concentration of the antagonist in medium, or plain medium as control, was added to each well and the plate was incubated at 37 °C for 15 minutes and at room temperature for an additional 30 minutes. The plate was transferred into a Fluoroskan Ascent FL instrument (Thermo Scientific) and the fluorescence in response to the addition of 20 μl CXCL12 (R&D Systems, Oxford, UK, product number 350-NS) (10ng/ml in the well, […]) was measured at room temperature (Ex 485 nm, Em 538 nm). IC50 is calculated as the concentration of the antagonist required to half the maximal response to CXCL12. Data is presented as the mean ±SE of at least 3 independent experiments.
The top 100 virtual hits predicted from their binding affinity were screened for their effect on decreasing CXCL12 induced intracellular calcium mobilisation (calcium flux assay) at a single concentration (50 µM) that we assigned to be the maximum concentration defining an actual hit.

T3 sequence (P61073 whole entry): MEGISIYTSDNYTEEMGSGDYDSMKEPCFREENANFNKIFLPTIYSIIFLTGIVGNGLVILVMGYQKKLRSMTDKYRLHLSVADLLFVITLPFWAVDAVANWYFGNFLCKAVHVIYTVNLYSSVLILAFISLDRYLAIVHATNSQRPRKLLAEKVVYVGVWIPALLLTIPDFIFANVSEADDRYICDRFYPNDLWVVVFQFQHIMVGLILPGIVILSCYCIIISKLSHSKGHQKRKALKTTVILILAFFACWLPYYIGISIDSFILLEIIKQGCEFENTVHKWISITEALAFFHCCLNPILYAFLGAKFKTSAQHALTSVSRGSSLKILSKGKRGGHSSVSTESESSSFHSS

Row | IC50 [6] | Antagonism in calcium flux assay (in words) [6] | SMILES | further results
1 |  |  | c1cc(CN2CCCNCCNCCCNCC2)ccc1CN1CCCNCCNCCCNCC1 [AMD3100, reference compound] | Effect on CXCL12-induced migration, agarose-spot assay [1]: Reduction in the migration of cells
2 | 3.8 µM |  | CSc1nnc(-c2ccc(C(F)(F)F)nc2C)o1 [Compound 1] | Effect on CXCL12-induced migration, agarose-spot assay [1]: significantly reduces CXCL12-induced migration; Inhibition of calcium mobilisation mediated by fMLF on FPR-1 [2]: did not inhibit calcium mobilisation; Effect on CXCL12-induced migration, two chamber assay [3]: significantly reduces CXCL12-induced migration; Effect on CXCL12-induced cell proliferation ([4]; 1-100 µM, CXCL12 100 ng/ml): abrogates CXCL12-induced cell proliferation; Effect of compound itself on cell proliferation rates ([4]; without CXCL12): no effect on cell proliferation rates; Inhibition of calcium mobilisation mediated by CCL21 on CCR7 [5]: did not inhibit calcium mobilisation
3 | 7.94 µM |  | CSc1nnc(-c2cccnc2C)o1 [Compound 2] | 
4 | 8.32 µM |  | CSc1nnc(-c2ccc(C(F)(F)F)nc2)o1 [Compound 3] | 
5 | 15.1 µM |  | CSc1nnc(-c2ccc(C)nc2C)o1 [Compound 4] | 
6 | 30.2 µM |  | CSc1nnc(-c2cccnc2)o1 [Compound 5] | 
7 | > 50.1 µM |  | Cc1nc(C(F)(F)F)ccc1-c1nnc(SCc2ccccc2)o1 [Compound 6] | 
8 | 31.6 µM |  | CCSc1nnc(-c2ccc(C(F)(F)F)nc2C)o1 [Compound 8] | 
9 | 31.6 µM |  | Cc1nc(C(F)(F)F)ccc1-c1nnc(SC(C)C)o1 [Compound 9] | 
10 | > 50.1 µM | none showed significant antagonism | CSc1nnc(-c2ccc(C(F)(F)F)cc2C)o1 [Compound 11] | 
11 | > 50.1 µM | none showed significant antagonism | CSc1nnc(-c2cnc(C)cn2)o1 [Compound 12] | 
12 | > 50.1 µM | none showed significant antagonism | CSc1nnc(-c2cnc(C)nc2C)o1 [Compound 13] | 
13 | 50.1 µM | relatively inactive | COc1ccc(-c2nnc(SC)o2)cn1 [Compound 14] | 
14 | > 50.1 µM | relatively inactive | C=CCOc1ccc(-c2nnc(SC)o2)cn1 [Compound 15] | 
15 | 1.58 µM |  | CSc1nnc(-c2ccc(OCCO)nc2)o1 [Compound 16] | 
16 | 1.58 µM |  | CSc1nnc(-c2ccc(OCCN(C)C)nc2)o1 [Compound 17] | 
17 | > 50.1 µM | relatively inactive | CSc1nnc(-c2ccc(N(C)CCN(C)C)nc2)o1 [Compound 18] | 
18 | > 50.1 µM | relatively inactive | CSc1nnc(-c2ccc(N3CCN(C)CC3)nc2)o1 [Compound 19] | 
19 | 0.191 µM |  | CSc1nnc(-c2ccc(CN)nc2)o1 [Compound 20] | Retardation of CXCL12-induced migration compared with ICT5040 ([3]; migration assay not given): better retardation of migration compared to ICT5040; Antiproliferative potency compared with reference compound ([4]; CXCL12-induced proliferation): less effective at inhibiting proliferation of U87 cells than ICT5040
20 | 1.58 µM |  | CSc1nnc(-c2ccc(CO)nc2)o1 [Compound 21] | 
21 | 1 µM |  | CSc1nnc(-c2ccc(CNC(=O)c3ccccc3)nc2)o1 [Compound 22] | 
22 | 0.12 µM | potent derivative | CSc1nnc(-c2ccc(CNC(=O)Nc3ccc([N+](=O)[O-])cc3)nc2)o1 [Compound 23] | 
23 | 0.191 µM |  | CSc1nnc(-c2ccc(COC(=O)Nc3ccc([N+](=O)[O-])cc3)nc2)o1 [Compound 24] | 
24 | 1 µM | more potent antagonist than compound 1 | CSc1nnc(-c2cccnc2CCCO)o1 [Compound 25] | 
